Where “and” joins values, the source holds several entries; their conditions need not be identical. Identical values can stand only once. Like-named read-outs stand apart in the source and are kept apart here.
What was measured:
[1] = tested on: endogenous pH-gated responses in HEK cells; parameters: method as in Gunthorpe et al. (2001); details: manual patch clamp, ref Gunthorpe et al. (2001), read-out: affinity for inhibition of endogenous pH-gated responses; cited from earlier work
[2] = tested on: ENaC channels; parameters: method as in Canessa et al., 1994; details: ref Canessa et al., 1994; cited from earlier work
[3] = tested on: endogenous proton-activated currents in HEK cells; test: cells; assay type: cell-based, human; details: for IC50: pH 6.5 activation, QPatch 48, read-out: mean IC50
Description: CHO hASIC1a cells were cultured according to vendor instructions (B-SYS GmbH) and HEK cells using standard in-house methods. Both cell lines were harvested using optimized protocols and re-suspended in serum-free media (Gibco CHO-S-SFM from Thermo Fisher Scientific for CHO cells, and Ex-Cell 302 from Merck Sigma-Aldrich for HEK cells) to obtain a suspension of cells with smooth membranes and little debris, before transfer to the automated cell hotel consisting of a 60 ml plastic container (Sophion SB2050) and a magnetic stir bar to prevent cell clumping. An aliquot of cells is then aspirated into a 1 ml microcentrifuge tube and spun down (typically 150 g for 2.5 min) and the supernatant discarded before a user-defined volume of external solution is added by the robot and the cells re-suspended to achieve the desired final cell suspension density before application to primed QPlates. Cell capture, sealing and whole-cell access was achieved using optimized QPatch protocols before currents were recorded using a holding potential of −60 mV. […] Cells were washed three times with external pH 7.3 solution (5 μl) between applications of activating acidic solution to establish a stable ASIC1a current baseline. […] Each concentration of reference compound was applied to each cell before (i.e., during each pH 7.3 application period) and during each pH stimulus (IC50 mode). Thus, each concentration of test compound was pre-incubated with cells for at least 2 min before, and then during each acidic solution challenge, before wash-off in a neutral pH 7.3 solution that contained the next concentration of the same compound. Cells were allowed at least 2 min between applications of acidic solution to enable ASIC1a receptors to recover from desensitization.
Concentration-response xC50 curves from Patchliner and QPatch 48 experiments were calculated by plotting %inhibition (antagonists) or activation (pH) data against concentration in Prism software (GraphPad), using the variable sigmoidal dose-response function to fit the Hill equation with theoretical minimum block of 0% and maximum block of 100% and a free constant for Hill slope. Inward current amplitudes were compared to the response to a control pH application (typically pH 6.5) prior to antagonist application or excitation by solutions of different pH to enable calculation of %inhibition or %activation for each cell.
To quickly confirm a previous publication that HEK cells express endogenous ASIC1a receptor channels and assess the suitability of this cell system for drug discovery screening on APC platforms, we utilized the medium throughput QPatch 48 device. The QPatch uses 48 well microfluidic planar borosilicate chips and coated titanium pipette tips to make whole-cell recordings and sequentially apply small liquid volumes to enable rapid activation followed by slower deactivation (wash-off) of ligand-gated ionotropic responses. HEK cells were voltage-clamped at −60 mV and maintained in external solution at pH 7.4 to avoid steady-state desensitization of ASIC1 receptor channels. Cells were stimulated by external solutions with pH values ranging between 7.0 and 5.5 that evoked rapidly activating inward currents, followed by wash-off in pH 7.4 solution.

[4] = target: T1, hASIC1a (Homo sapiens, UniProt P78348); parameters: host or cells: CHO; details: ref Leng et al., 2016; read-out: Literature IC50; cited from earlier work
T1 sequence (P78348 1-528): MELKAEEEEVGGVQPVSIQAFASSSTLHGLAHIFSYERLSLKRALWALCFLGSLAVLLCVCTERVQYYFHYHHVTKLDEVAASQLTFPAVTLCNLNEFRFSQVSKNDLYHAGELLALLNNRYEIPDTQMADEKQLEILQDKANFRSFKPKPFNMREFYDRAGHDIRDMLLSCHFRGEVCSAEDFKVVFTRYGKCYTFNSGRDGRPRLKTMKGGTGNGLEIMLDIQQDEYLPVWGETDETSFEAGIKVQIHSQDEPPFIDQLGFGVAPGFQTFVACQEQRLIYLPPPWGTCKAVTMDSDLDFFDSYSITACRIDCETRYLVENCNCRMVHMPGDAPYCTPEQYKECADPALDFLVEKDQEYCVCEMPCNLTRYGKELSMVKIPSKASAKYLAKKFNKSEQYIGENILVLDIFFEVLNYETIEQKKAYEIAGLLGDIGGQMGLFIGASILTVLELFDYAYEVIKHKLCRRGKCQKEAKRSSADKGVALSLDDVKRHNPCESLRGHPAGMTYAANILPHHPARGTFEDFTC

[5] = target: T1, hASIC1a; test: Patchliner APC, CHO ASIC1a currents, stacked tip application, voltage clamp; assay type: cell-based; parameters: host or cells: CHO; details: cumulative application, pH 6.5, stacked tip, single hole
Description: CHO cells were cultured according to vendor instructions (B-SYS GmbH) and harvested using optimized protocols before transfer of the cell suspension to the automated cell hotel on the Patchliner where cells are stored at RT (∼20°C) in a small Teflon vessel and repetitively aspirated every 30 s using a 1 ml plastic pipette tip to prevent aggregation. The cell hotel parameters can be adjusted (interval, speed and volume of aspiration) depending on the cell type to maintain viability for 2–3 h. Cell sealing was conducted in the presence of elevated divalent cations and lowered Na^+, which were washed off after whole-cell access was achieved and replaced with external solution while cells were voltage clamped at a holding potential of −60 mV. […]
Concentration-response xC50 curves from Patchliner and QPatch 48 experiments were calculated by plotting %inhibition (antagonists) or activation (pH) data against concentration in Prism software (GraphPad), using the variable sigmoidal dose-response function to fit the Hill equation with theoretical minimum block of 0% and maximum block of 100% and a free constant for Hill slope. […]

Row | Structure (SMILES) | IC50 [1] | sensitivity of ENaC channels to inhibition [2] | IC50 ([3]; HEK cells) | IC50 ([3]; Homo sapiens, HEK293, pH 6.5, HEK cells) | inhibition at 0.3 µM ([3]; Homo sapiens, HEK293, read-out: inhibition of pH-evoked current (some cells)) | IC50 [4] | IC50 [5]
1 | N=C(N)NC(=O)c1nc(Cl)c(N)nc1N [Amiloride] | 2200 nM | 100 nM | 2000 to 3000 nM and 2800 nM | 2820 nM | ~25% |  | 
2 | NC(=NCc1ccccc1)NC(=O)c1nc(Cl)c(N)nc1N [Benzamil] |  |  |  |  |  | 3.5 µM | 3.65 µM

Reference: publication PMC9629855, “Development of ASIC1a ligand-gated ion channel drug screening assays across multiple automated patch clamp platforms” (Frontiers in Molecular Neuroscience, 2022)
